This is an account of results in US20070031485A1, “Pharmaceutical composition having a cationic excipient” (priority 2003, published 2007).

A short description of data set [1]: Stabilization of aqueous dispersion of cholesterol particles, visual appearance. It is filed as physicochemical. Particulars: 1% cholesterol in 0.1% w/w (3 mM) dodecyl betainate solution. The method, then: The ability of dodecyl betainate to stabilize aqueous dispersions of hydrophobic particles was investigated in samples containing 1% cholesterol (of lanolin origin, Fluka) in pure water and in dodecyl betainate solutions of varying concentration. The samples were prepared by weighing the components into screw-capped glass vials that were first shaken, then kept in an ultrasonic bath for 5 minutes and finally shaken again before left for inspection. The table below presents the visual appearance of samples with different surfactant concentrations at different times.

The subject of data set [2] is intestinal mucosa (small intestine segments). As to the kind of experiment: Using (Ussing) diffusion chamber experiments, passage of marker molecules across rat small intestine. The settings on record: betaine ester containing solution (0.5 % w/w) compared to control.
Source text: (§1) A modified Using diffusion chamber with an exposed tissue area 1.78 cm^2 was used in the experiments. 15 to 20 cm of the small intestine, distal to the Ligament of Treitz was removed from rats (male Sprague-Dawley, 400-500 g) and used in the tests. Three rats and three segments per rat were included in each experimental group. The passage of different marker molecules, ^14C-mannitol and FITC-dextran (4400 FD4), from the mucosal to the serosal chamber were expressed as apparent permeability coefficient (Papp). The apparent permeability coefficient (Papp) to mannitol and FITC-dextran 4.400 across the intestinal mucosa was calculated from the equation: Papp (cm/s)×10-6)=dc/dt * (V/(A*C0)), where dc/dt is the change of the serosal concentration over time (mol/L/sec), V is the volume in the reservoir of the serosal side (cm^3), CO is the initial concentration of the marker in the mucosal reservoir (mol/L), and A is the exposed intestinal area in the chamber (cm^2) .
(§2) The difference in electric potential over the segments was measured before and after the experiment.
Data set [3] shares this test system.
Source text: as §1, §2
Data set [4] is described as follows: Critical micelle concentration. The data set is classed as physicochemical.
The format of data set [5] is physicochemical. The settings on record: buffer. The text has this: Surface-active betaine esters are even more susceptible to alkaline hydrolysis than non-surface active esters. The reason for the increased reactivity of surface-active betaine esters is that the ester bond will hydrolyse more readily when the surfactants are in the form of aggregates, i.e. micelles. Like all other surfactants, surface-active betaine esters form micelles at a certain concentration, the CMC, and further increase of the surfactant concentration just leads to the formation of more micelles; the concentration of free surfactant molecules stays constant. In the vast majority of applications of cationic surfactants the concentration is far above the CMC, which means that almost all surfactants are in an aggregated form. The micelles of betaine ester surfactants are highly positively charged since all the quaternary ammonium groups are located at the surface of the aggregate. The positive charges must be compensated for by negatively charged ions, so-called counterions. All types of negative ions present in the solution, including hydroxyl ions, will accumulate at the micelle surface. This means that the local concentration of hydroxyl ions will be higher in the vicinity of the micelle than in the bulk, or, differently expressed, the local pH around the micelles will be higher than in the bulk. […]

Read-outs that look alike come from different tables or passages of the source.

Procedure for Erythrocytes from rats: Erythrocytes from rats were washed 3 times and suspended in saline solution (0.9%) to a volume fraction of 0.025. The hemolys experiments were performed by mixing the erythrocyte suspension with surfactant solutions in a 1:1 ratio, thereby giving a finale erythrocyte volume fraction of 0.0125 and a surfactant concentration as stated in the figure. The samples were then incubated at 37° C. for 1 hour and centrifuged at 2000 g for 10 minutes. Aliquots of the supernatant was mixed with an equal volume of 15 mM C14TAC before the hemoglobin content was measured spectrophotometrically on a Lab systems iEMS Reader MF at 540 nm.
The concentrate was dispersed in saline solution by gentle stirring at room temperature just before the experiment. The resulting aqueous dispersion was tested in the same way as stated above for the surfactant solution.
The concentrations given in the figure represent the amounts of cationic surfactant in the tested solutions. […] The phosphatidyl choline used is Epikuron 200 from Degussa BioActives, a pharmaceutical grade product of soybean origin. All data are normalized to the absorbance obtained from hemolysis by the 0.5 mM tetradecyltrimethylammonium chloride sample.

`CCCCCCCCCCCCOC(=O)C[N+](C)(C)C` [dodecyl betainate]: the “Visual appearance after 5 min.” value in data set [1] is reported as “Turbid dispersion”. Further, in data set [2], the “damage to segments, potential difference over the segments before and after treatment” value is listed as “no increased damage”. Moreover, the “permeability of intestinal segments for marker molecules” value in data set [3] was “not affected”. Moreover, the “toxicity to red blood cells (relative haemolytic effect)” value with Erythrocytes from rats (at low concentrations, 37° C., 1 hour, compared with C14TAC) is listed as “lower than that of the stable surfactant C14TAC”; in the data set on Erythrocytes from rats (betaine ester co-formulated with phosphatidyl choline (weight ratio 20 to 80)), “further lowered”. In data set [4], the “critical micelle concentration (CMC)” value amounted to 3.1 mM. The “half-life (hydrolysis)” value in data set [5] worked out at 1.5 h.
As to `CCCCCCCCCCCCCC[N+](C)(C)C.[Cl-]` [C14TAC, tetradecyltrimethylammonium chloride, reference compound], the “critical micelle concentration (CMC)” value in data set [4] stood at 2.5 mM.
On to `CCOC(=O)C[N+](C)(C)C` [ethyl betainate, reference compound], for which the “half-life (hydrolysis)” value in data set [5] was 9 h.
